From ChEMBL document CHEMBL5625204, “Synthesis and pharmacodynamic evaluation of naphthalene derivatives against influenza A virus in vitro and in vivo” (Eur J Med Chem, 2023)
pEC50: −log10 of the molar value. Activity calls are given as the source filed them. The calls are words filed in the database; no cut-off is given here.

Tests used:
Influenza A virus [1] = assay: Antiviral activity against Influenza A virus H1N1 infected in dog MDCK cells assessed as decrease in apoptosis by measuring proportion of early apoptotic cells at 25 uM measured after 72 hrs by AnnexinV-FITC/PI staining based flow cytometry (reference value: 24.3%); assay type: functional; set-up: scale not given: the % may be the effect or the level left
[2] = Selectivity index, ratio of CC50 for dog MDCK cells to EC50 for antiviral activity against Influenza A virus H1N1 (A/Weiss/43) infected in MDCK cells treated for 2 hrs before viral infection and measured after 72 hrs; assay type: toxicity, cell-based; conditions: read-out: Ratio CC50/EC50
[3] = Selectivity index, ratio of CC50 for dog MDCK cells to EC50 for antiviral activity against Influenza A virus H1N1 (A/Weiss/43) infected in MDCK cells treated for 72 hrs after viral adsorption; assay type: toxicity, cell-based; conditions: read-out: Ratio CC50/EC50
[4] = Cytotoxicity against dog MDCK cells assessed as reduction in cell viability incubated for 72 hrs by MTT assay; assay type: toxicity, cell-based, Canis lupus familiaris
Influenza A virus [5] = assay: Antiviral activity against Influenza A virus H1N1 infected in human A549 cells assessed as decrease in RIG-1 pathway related gene expression by measuring decrease in RIG-1 gene expression at 25 to 50 uM measured after 24 hrs by qRT-PCR analysis; assay type: functional, organism-based; conditions: dose 25-50 µM
Influenza A virus [6] = assay: Antiviral activity against Influenza A virus H1N1 infected in human A549 cells assessed as decrease in RIG-1 pathway related protein expression by measuring decrease in RIG-1 protein expression at 25 to 50 uM measured after 24 hrs by western blot analysis; assay type: functional, organism-based; conditions: dose 25-50 µM
Influenza A virus [7] = assay: Antiviral activity against Influenza A virus H1N1 (A/Weiss/43)-infected in BALB/c mouse assessed as reduction in TNF-alpha gene expression in lungs at 25 to 100 mg/kg/day administered intranasally for 6 days starting from 3 hrs post-viral infection by qRT-PCR analysis; assay type: functional, organism-based; conditions: dose 25-100 mg/kg/day, route nas, time 6.0 day
[8] = Toxicity in BALB/c mouse infected with Influenza A virus H1N1 (A/Weiss/43) assessed as kidney pathological changes at 25 to 100 mg/kg/day administered intranasally for 6 days starting from 3 hrs post-viral infection by Hematoxylin-Eosin staining based analysis; assay type: organism-based; conditions: in vivo, inhaled_or_intranasal, 144 h, dose 25-100 mg/kg/day, route nas, time 6 day
Influenza A virus [9] = assay: (§1) Antiviral activity against Influenza A virus H1N1 (A/Weiss/43)-infected in dog MDCK cells assessed as reduction in oxidative stress by measuring proportion of cells with excessive ROS accumulation at 50 uM treated at 2 hrs post-infection and measured after 36 hrs by DCFH-DA staining based flow cytometry (reference value: 30.6%); assay type: functional; set-up: scale not given: the % may be the effect or the level left
Influenza A virus [10] = assay: Antiviral activity against Influenza A virus H1N1 infected in human A549 cells assessed as decrease in RIG-1 pathway related protein expression by measuring decrease in NF-kappaB p65 protein expression at 25 to 50 uM measured after 24 hrs by western blot analysis; assay type: functional, organism-based; conditions: dose 25-50 µM
Influenza A virus [11] = assay: as §1, with “25” for “50”; assay type: functional; set-up: scale not given: the % may be the effect or the level left
Influenza A virus [12] = assay: Antiviral activity against Influenza A virus H3N2 (A/California/2004) infected in MDCK cells assessed as reduction of viral replication incubated for 72 hrs by TCID50 method; assay type: functional, organism-based
[13] = Toxicity in dog MDCK cells assessed as ROS production by measuring proportion of normal cells at 50 uM measured after 36 hrs by DCFH-DA staining based flow cytometry (reference value: 99.9%); assay type: cell-based, Canis lupus familiaris
Influenza A virus [14] = assay: Antiviral activity against Influenza A virus H1N1 infected in human A549 cells assessed as decrease in apoptosis by measuring decrease in cleaved caspase-7 protein expression at 25 to 50 uM measured after 24 hrs by western blot analysis; assay type: functional, organism-based; conditions: dose 25-50 µM
[15] = Toxicity in BALB/c mouse infected with Influenza A virus H1N1 (A/Weiss/43) assessed as liver pathological changes at 25 to 100 mg/kg/day administered intranasally for 6 days starting from 3 hrs post-viral infection by Hematoxylin-Eosin staining based analysis; assay type: organism-based; conditions: in vivo, inhaled_or_intranasal, 144 h, dose 25-100 mg/kg/day, time 6 day
Influenza A virus [16] = assay: Antiviral activity against Influenza A virus H1N1 (A/Weiss/43) infected in MDCK cells assessed as reduction of viral replication at 50 uM treated for 2 to 4 hrs after viral infection and measured after 72 hrs by MTT method; assay type: functional, organism-based; conditions: time 74-76 hrs
Influenza A virus [17] = assay: Antiviral activity against Influenza A virus H1N1 infected in dog MDCK cells assessed as decrease in apoptosis by measuring proportion of late apoptotic cells at 50 uM measured after 72 hrs by AnnexinV-FITC/PI staining based flow cytometry (reference value: 10.3%); assay type: functional; set-up: scale not given: the % may be the effect or the level left
Influenza A virus [18] = assay: Antiviral activity against Influenza A virus H1N1 (A/Weiss/43)-infected in BALB/c mouse assessed as reduction in lung index at 100 mg/kg/day administered intranasally for 6 days starting from 3 hrs post-viral infection; assay type: functional; conditions: 144 h, route nas, time 6 day
Influenza A virus [19] = assay: as §1, with “of normal” for “of”, “cells” for “cells with excessive ROS accumulation”, “25” for “50”, “69.4%)” for “30.6%)”; assay type: functional; set-up: scale not given: the % may be the effect or the level left
[20] = Toxicity in dog MDCK cells assessed as proportion of late apoptotic cells at 50 uM measured after 72 hrs by AnnexinV-FITC/PI staining based flow cytometry (reference value: 3.45%); assay type: cell-based, Canis lupus familiaris
Influenza A virus [21] = assay: Antiviral activity against Influenza A virus H1N1 infected in human A549 cells assessed as decrease in RIG-1 pathway related gene expression by measuring decrease in IRF3 gene expression at 25 to 50 uM measured after 24 hrs by qRT-PCR analysis; assay type: functional, organism-based; conditions: dose 25-50 µM
Influenza A virus [22] = assay: Inhibition of Influenza A virus replication infected in human A549 cells assessed as downregulation of virus NP protein expression at 25 to 50 uM measured after 24 hrs by western blot analysis; assay type: functional, organism-based; conditions: dose 25-50 µM
Erythrocyte = assay: Inhibition of Hemagglutinin1 in Influenza A virus assessed as inhibition of virus-induced hemagglutination at 7.81 to 250 uM pretreated with virus for 30 mins followed by chicken RBC addition and measured after 1 hr; assay type: cell-based; conditions: dose 7.81-250 µM, time 90.0 min
[23] = Toxicity in dog MDCK cells assessed as ROS production by measuring proportion of cells with excessive ROS accumulation at 50 uM measured after 36 hrs by DCFH-DA staining based flow cytometry (reference value: 0.094%); assay type: cell-based, Canis lupus familiaris
Influenza A virus [24] = assay: Antiviral activity against Influenza A virus infected in human A549 cells assessed as reduction of viral replication at 6.25 to 100 uM incubated for 72 hrs by TCID50 method; assay type: functional, organism-based; conditions: dose 6.25-100 µM

O=[N+]([O-])c1ccc(S(=O)(=O)N(Cc2ccccc2)c2cccc3ccccc23)cc1
Activity (Influenza A virus [1]): 2.55%
selectivity ratio at 72 h [2]: > 105
selectivity ratio at 72 h [3]: > 351
CC50 at 72 h [4]: > 800 µM
inhibition (Influenza A virus [5]): Active
inhibition (Influenza A virus [6]): Active
Activity (Influenza A virus [7]): Active
Activity [8]: Non-Toxic
Activity (Influenza A virus [9]): 4.66%
inhibition (Influenza A virus [10]): Active
Activity (Influenza A virus [11]): 12.3%
pEC50 (Influenza A virus [12]): 5.18
Activity [13]: 98.6%
inhibition (Influenza A virus [14]): Active
Activity [15]: Non-Toxic
Activity (Influenza A virus [16]): Active
Activity (Influenza A virus [17]): 1.09%
inhibition in vivo at 100 mg/kg/day (Influenza A virus [18]): 43.3%
Activity (Influenza A virus [19]): 87.7%
Activity [20]: 0.71%
inhibition (Influenza A virus [21]): Active
inhibition (Influenza A virus [22]): Active
inhibition (Erythrocyte): inactive
Activity [23]: 1.36%
Activity (Influenza A virus [24]): Active
